Measured values reported in patent publication US7923440B2, “Method of treating or preventing immune mediated disorders and pharmaceutical formulation for use therein” (Pantarhei Bioscience B.V., priority 2002, dated 2011).

Assays:
[1] = test system: B10.PL mice with experimental autoimmune encephalomyelitis (EAE); assay: MBP induced EAE in B10.PL mice; assay type: in vivo, mouse
[2] = test system: male DBA/1 mice with collagen induced arthritis (CIA); assay: Collagen induced arthritis (CIA) in male DBA/1 mice, oral treatment; assay type: in vivo, mouse; conditions: for average day of disease onset (arthritis): vehicle 25.4±0.64
Protocol: The ability of estetrol to alleviate the severity of immune mediated disorders and its possible side-effects were evaluated and compared with dexamethasone in mice developing collagen induced arthritis (CIA), which is another experimental system of autoimmune and chronic inflammatory disease, representing human arthritic diseases, particularly rheumatoid arthritis (RA).
Arthritis was induced in male DBA/1 mice using a two-step immunization protocol (Joosten et al., “Dual role of IL-12 in early and late stages of murine collagen type II arthritis”. J Immunol 1997; 159:4094-4102; Joosten et al., “IL-1β blockade prevents cartilage and bone destruction in murine type II collagen-induced arthritis, whereas TNFα blockade only ameliorates joint inflammation”. J Immunol 1999; 163:5049-55). This strain is highly susceptible to CIA induced with bovine type II collagen. On day 0, mice were immunized with bovine type II collagen (100 μg) emulsified in Freund's complete adjuvant (four subcutaneous injections in the back). On day 21, mice were boosted with an i.p. injection of 100 μg collagen type II diluted in PBS.
The effect of oral treatment with estetrol on collagen-induced arthritis was studied in a 6-week study design. From day 22 until the end of the study (day 42), the animals were treated once daily with vehicle (hydroxypropyl-beta-cyclodextrin in a 20% wt/vol solution in water) serving as negative control or four different dosages of estetrol (3 mg/kg, 1 mg/kg, 0.3 mg/kg and 0.1 mg/kg). Dexamethasone (1 mg/kg), was chosen as a positive control because it is a well studied corticosteroid that reduces swelling and inflammation and is used in a variety of disorders such as skin diseases (psoriasis, hives), allergic conditions, breathing problems, cancer, blood disorders (anemia), digestive problems, eye disorders and for the treatment of arthritis. Although effective as an anti-inflammatory agent, dexamethasone is also known to induce a number of side effects, which amongst others include in humans the induction of osteoporosis, reduced adrenal function, dizziness, nausea, indigestion, increased appetite, weight gain due to enhanced water retention, weakness and/or sleep disturbances. In addition, systemic dexamethasone treatment in rodents results in strong catabolic effects that can be easily observed as weight loss (Orzechowski et al. 2002, “Rats with a glucocorticoid-induced catabolic state show symptoms of oxidative stress and spleen atrophy: the effects of age and recovery”. J Vet Med A Physiol Pathol Clin Med; 49:256-63).
All groups used in the study consisted of 13 mice. During the study animals were weighed and monitored for clinical signs of arthritis. Scoring of disease severity (clinical arthritis score) was performed according to scoring system described by Joosten et al. 1997 (J. Immunol., 159:4094-4102) and Joosten et al. 1999 (J. Immunol., 163:5049-55).
Basic statistical analyses were performed as follows: The significance of differences between all treatment groups in the main clinical outcome parameters was tested using analysis of variance (ANOVA). Each significant ANOVA was followed by post hoc Tukey tests to determine the significance of the difference between each treatment group and the control group. Furthermore, linear regression analysis was used to study the dose-dependency of the effects of treatment with estetrol. All statistical analysis were performed using statistical software program SPSS 10.0 for Windows (SPSS Inc., Chicago, Ill., USA).

[3] = biological target: T1, human sex Hormone Binding Globulin (SHBG) (Homo sapiens, UniProt P04278); assay: Competitive steroid-binding assay for SHBG
T1 construct: made in house; host or cells: transgenic mouse (serum)
T1 sequence (P04278 30-402): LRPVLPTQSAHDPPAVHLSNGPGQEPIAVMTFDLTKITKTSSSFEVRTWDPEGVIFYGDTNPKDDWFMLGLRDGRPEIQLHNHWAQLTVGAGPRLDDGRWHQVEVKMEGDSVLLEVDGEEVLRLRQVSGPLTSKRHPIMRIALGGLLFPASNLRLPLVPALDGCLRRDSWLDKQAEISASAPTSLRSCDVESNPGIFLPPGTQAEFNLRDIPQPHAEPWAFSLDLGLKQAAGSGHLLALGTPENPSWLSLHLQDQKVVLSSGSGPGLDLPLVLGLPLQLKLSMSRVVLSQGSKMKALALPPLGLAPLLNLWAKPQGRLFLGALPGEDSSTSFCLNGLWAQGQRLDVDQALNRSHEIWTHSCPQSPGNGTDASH
Protocol: Human SHBG was treated for 30 min at room temperature with a dextran-coated charcoal (DCC) suspension in phosphate buffered saline (PBS) to remove any steroid ligand. After centrifugation (2,000×g for 10 min) to sediment the DCC, the supernatant containing the human SHBG was diluted in PBS to a concentration of 1 nM based on its steroid binding capacity.
The average amounts of [^3H]labeled ligands bound to SHBG at each concentration of competitor (B) were expressed as a percentage of the average amounts of [^3H]labeled ligands bound to SHBG in the absence of competitor (B0), and were plotted against the concentration of competitor in each assay tube.

[4] = biological target: T2, rat uterine cytosol estrogen receptor (Rattus norvegicus, UniProt P06211); conditions: Martucci et al. 1976; cited from earlier work
T2 construct: rat uterine cytosol estrogen receptor; host or cells: rat uterus, cytosol
T2 sequence (P06211 1-600): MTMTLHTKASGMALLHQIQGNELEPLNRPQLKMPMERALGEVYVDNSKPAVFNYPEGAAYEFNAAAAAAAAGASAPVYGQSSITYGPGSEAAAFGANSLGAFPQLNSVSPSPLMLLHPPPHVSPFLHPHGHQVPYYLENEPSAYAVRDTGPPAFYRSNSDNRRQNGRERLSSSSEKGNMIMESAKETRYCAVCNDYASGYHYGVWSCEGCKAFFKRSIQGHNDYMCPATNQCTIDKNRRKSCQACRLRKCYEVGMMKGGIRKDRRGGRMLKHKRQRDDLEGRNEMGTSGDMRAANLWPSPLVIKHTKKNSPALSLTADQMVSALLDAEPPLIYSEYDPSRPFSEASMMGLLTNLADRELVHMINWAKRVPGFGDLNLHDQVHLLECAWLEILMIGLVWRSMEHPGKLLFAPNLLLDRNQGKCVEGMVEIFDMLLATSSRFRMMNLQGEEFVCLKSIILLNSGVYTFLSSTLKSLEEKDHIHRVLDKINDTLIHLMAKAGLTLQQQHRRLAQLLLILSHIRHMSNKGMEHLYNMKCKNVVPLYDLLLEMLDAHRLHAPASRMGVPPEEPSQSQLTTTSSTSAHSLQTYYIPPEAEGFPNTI

[5] = ovariectomized female B10.PL mice, sc and oral 0.1-3.0 mg/kg/day, 40 days

## C[C@]12CC[C@@H]3c4ccc(O)cc4CC[C@H]3[C@@H]1[C@@H](O)[C@@H](O)[C@@H]2O [E4, 1,3,5 (10)-estratrien-3,15α,16α,17β-tetrol]
[1]; non-castrated female and male B10.PL mice, daily sc and/or oral
  symptoms and severity of EAE: dose-dependently alleviate symptoms and severity of EAE
[1]; [5]
  number of afflicted animals and/or severity of EAE symptoms: dose-dependently reduced
  onset of EAE disease symptoms: dose-dependent effects in delaying the onset of EAE disease symptoms
[2]; oral 0.1 mg/kg
  average day of disease onset (arthritis): 25.8 days
[2]; oral 0.3 mg/kg
  average day of disease onset (arthritis): 26.0 days
[2]; oral 1.0 mg and 3.0 mg/kg groups
  increase in disease incidence versus vehicle: clearly delayed
[2]; oral 1.0 mg/kg
  average day of disease onset (arthritis): 28.2 days
[2]; oral 3.0 mg/kg, day 28
  body weight, % of initial weight (day 21): 99.3%
[2]; oral 3.0 mg/kg, day 35
  body weight, % of initial weight (day 21): 96.7%
[2]; oral 3.0 mg/kg, day 42
  body weight, % of initial weight (day 21): 97.9%
[2]; oral 3.0 mg/kg
  average day of disease onset (arthritis): 30.7 days
[2]; oral 0.1-3 mg/kg, day 21 to 42
  average cumulative arthritis score: dose-dependently reduced and significantly different as compared to vehicle-treated animals
[2]; oral 0.1-3 mg/kg, day 22-42
  development of macroscopical arthritis score: dose-dependently reduced
[2]; oral, lower three doses (0.1, 0.3 and 1.0 mg/kg)
  weight loss: comparable to the negative and positive control animal groups
[3]; [3H]DHT as labeled ligand
  binding to human SHBG: does not bind at all
[3]; [3H]estradiol as labeled ligand
  binding to human SHBG: does not bind at all
[3]; comparison among tested steroids, order ethinylestradiol, 17β-estradiol, testosterone, 5α-dihydrotestosterone
  relative binding affinity for human SHBG: negligible
[4]
  relative binding affinity, of 17β-estradiol (100%): 0.5%
